From patent US9447134B2 (priority 2012, dated 2016) come the findings set out here.

The subject of one series is Bu. mallei IMPDH. It is filed as biochemical, Burkholderia mallei. The conditions noted are these: FIG. 24.
The target of a further series is S. pyogenes IMPDH (Streptococcus pyogenes, UniProt P0C0H6). As to the kind of experiment: biochemical.
The next series has as its target B. anthracis IMPDH (Bacillus anthracis, UniProt A0A6L8P2U9). Nature of the series: biochemical.
A further series addresses F. tularensis IMPDH (Francisella tularensis, UniProt Q5NFC2). As to the kind of experiment: biochemical.
The target in the next series is T1, CpIMPDH (Cryptosporidium parvum, UniProt Q8T6T2).
T1 sequence (Q8T6T2 1-400): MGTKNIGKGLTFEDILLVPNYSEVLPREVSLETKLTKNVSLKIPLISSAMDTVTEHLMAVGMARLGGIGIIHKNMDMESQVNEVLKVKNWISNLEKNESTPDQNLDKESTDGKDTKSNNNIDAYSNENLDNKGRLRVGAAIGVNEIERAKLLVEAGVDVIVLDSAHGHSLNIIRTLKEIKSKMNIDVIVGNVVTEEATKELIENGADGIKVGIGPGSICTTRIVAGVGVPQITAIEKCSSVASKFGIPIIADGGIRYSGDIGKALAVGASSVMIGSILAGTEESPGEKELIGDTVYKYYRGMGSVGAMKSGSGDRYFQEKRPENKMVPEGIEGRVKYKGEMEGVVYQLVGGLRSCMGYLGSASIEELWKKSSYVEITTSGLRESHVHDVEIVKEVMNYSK
The note with it: read-out: IC50 against CpIMPDH.

Series [1] can be described thus: Tissue distribution of P131 in mice. The note with it: 24 h after a single 83 mg/kg oral dose.
Series [2] can be described thus: Plasma pharmacokinetics in C57BL/6 mice. It is filed as in vivo, mouse. On the procedure:
FIG. 32 tabulates the pharmacokinetic parameters for urea CpIMPDH inhibitors. C57BL/6 mice received a single dose of 250 mg/kg in 10% DMSO/corn oil by oral gavage.
Given the limited efficacy of current treatments, the pharmacokinetic and physicochemical properties required for in vivo efficacy have not been established. […] P82 is the primary product of P83 metabolism, so the concentration of P82 in plasma was also measured during P83 treatment.
PK was assessed at either the Stony Brook Translation Experimental Laboratory Therapeutics (Stony Brook, NY) or GVK Biosciences (Hyderabad, India).

In series [3] the test system is Caco-2 cells. Nature of the series: Efflux from preloaded Caco-2 cells. It is filed as in vitro ADME, human. The conditions noted are these: preincubated with 100 μM. The method, then:
FIG. 37 depicts the amount of P131 remaining in Caco-2 cells after the cells were loaded with different concentrations of P131 for 2 h at 37° C. in HBSS. The efflux tin is −1 h for loading at 100 μM and 2 h for 20 μM and 5 μM.
We preloaded Caco-2 cells with 5, 20 or 100 μM P131, then measured efflux (FIG. 37). The initial intracellular concentrations of P131 were dose dependent and scaled with the extracellular concentration for the 5 and 20 μM preincubation conditions. […] P131 efflux was very slow under all three conditions, with tin of 1-2 h.

The test system of the next series is gut microbiota. The conditions noted are these: 250 mg/kg daily, 7 days, compared with vehicle.
In the next series the test system is C. parvum. The note with it: IL-12 knockout mice, 250 mg/kg daily oral gavage.
Series [4] concerns Caco-2 cells. Nature of the series: Uptake in Caco-2 cells. It is filed as in vitro ADME, human. The conditions noted are these: extracellular concentration 10 μM. The method, then: FIG. 33 tabulates urea CpIMPDH inhibitor permeability and uptake in Caco-2 TC7 cells. All compounds at 10 μM, pH 7.4 on both sides. Solid recovery >80% in all cases. a. Approximate intracellular concentration, assuming 4 μL of water for 1 mg of cellular protein.
To further investigate the relationship between intestinal accumulation and antiparasitic activity, we measured the uptake of the CpIMPDH inhibitors in Caco-2 cells, a widely used model of human intestinal epithelial cells. Uptake varied over a range of 2000-fold among the eight CpIMPDH inhibitors (FIG. 33). […] All of the other compounds accumulated intracellular concentrations in excess of the extracellular concentration. […] The concentrations of all the other compounds were lower by at least a factor of 10, but nevertheless exceeded the concentrations required to inhibit CpIMPDH.

The target of the next series is A. baumannii IMPDH (Acinetobacter baumannii, UniProt D0CF46). As to the kind of experiment: biochemical.
Chain of A. baumannii IMPDH (D0CF46 entry or part of it): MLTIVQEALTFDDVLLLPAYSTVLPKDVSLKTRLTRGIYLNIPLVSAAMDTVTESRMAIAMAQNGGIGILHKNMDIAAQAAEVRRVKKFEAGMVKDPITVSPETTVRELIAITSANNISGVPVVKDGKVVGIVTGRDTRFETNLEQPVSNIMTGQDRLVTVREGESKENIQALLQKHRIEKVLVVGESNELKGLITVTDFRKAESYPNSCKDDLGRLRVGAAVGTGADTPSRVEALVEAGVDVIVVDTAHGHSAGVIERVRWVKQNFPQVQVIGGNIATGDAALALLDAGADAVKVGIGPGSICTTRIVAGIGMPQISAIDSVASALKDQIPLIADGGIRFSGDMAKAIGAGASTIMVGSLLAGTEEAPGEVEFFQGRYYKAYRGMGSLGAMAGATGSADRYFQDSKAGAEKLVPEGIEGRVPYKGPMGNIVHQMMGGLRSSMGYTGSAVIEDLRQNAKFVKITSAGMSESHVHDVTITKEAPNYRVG

pIC50: −log10 of the molar value.

Chain of B. anthracis IMPDH (A0A6L8P2U9 1-487): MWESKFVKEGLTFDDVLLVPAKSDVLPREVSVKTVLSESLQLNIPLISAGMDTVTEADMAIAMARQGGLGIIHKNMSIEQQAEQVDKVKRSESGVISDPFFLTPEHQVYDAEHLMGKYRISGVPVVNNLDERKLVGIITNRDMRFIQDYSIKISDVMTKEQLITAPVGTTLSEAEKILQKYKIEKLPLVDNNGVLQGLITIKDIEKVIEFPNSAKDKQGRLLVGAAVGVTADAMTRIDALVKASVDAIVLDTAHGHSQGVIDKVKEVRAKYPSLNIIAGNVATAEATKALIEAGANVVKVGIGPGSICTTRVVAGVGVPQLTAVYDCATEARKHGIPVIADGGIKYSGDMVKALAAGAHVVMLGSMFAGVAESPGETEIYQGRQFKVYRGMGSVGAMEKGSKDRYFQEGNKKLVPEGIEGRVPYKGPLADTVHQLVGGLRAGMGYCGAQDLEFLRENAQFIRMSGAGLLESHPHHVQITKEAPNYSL
Chain of S. pyogenes IMPDH (P0C0H6 whole entry): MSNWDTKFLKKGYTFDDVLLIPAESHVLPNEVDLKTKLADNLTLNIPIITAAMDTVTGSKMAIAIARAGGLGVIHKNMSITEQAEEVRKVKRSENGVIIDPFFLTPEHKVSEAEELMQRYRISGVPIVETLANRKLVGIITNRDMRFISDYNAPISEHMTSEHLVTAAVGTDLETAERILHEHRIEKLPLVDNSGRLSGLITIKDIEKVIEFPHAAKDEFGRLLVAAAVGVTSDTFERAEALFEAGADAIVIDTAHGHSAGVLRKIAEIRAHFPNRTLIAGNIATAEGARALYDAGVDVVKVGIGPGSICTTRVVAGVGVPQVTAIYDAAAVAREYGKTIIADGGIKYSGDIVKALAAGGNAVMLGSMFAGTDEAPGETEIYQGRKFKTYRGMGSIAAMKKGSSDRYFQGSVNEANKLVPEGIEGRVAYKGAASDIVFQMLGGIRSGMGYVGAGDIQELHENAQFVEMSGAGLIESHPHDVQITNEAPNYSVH
Chain of F. tularensis IMPDH (Q5NFC2 1-486): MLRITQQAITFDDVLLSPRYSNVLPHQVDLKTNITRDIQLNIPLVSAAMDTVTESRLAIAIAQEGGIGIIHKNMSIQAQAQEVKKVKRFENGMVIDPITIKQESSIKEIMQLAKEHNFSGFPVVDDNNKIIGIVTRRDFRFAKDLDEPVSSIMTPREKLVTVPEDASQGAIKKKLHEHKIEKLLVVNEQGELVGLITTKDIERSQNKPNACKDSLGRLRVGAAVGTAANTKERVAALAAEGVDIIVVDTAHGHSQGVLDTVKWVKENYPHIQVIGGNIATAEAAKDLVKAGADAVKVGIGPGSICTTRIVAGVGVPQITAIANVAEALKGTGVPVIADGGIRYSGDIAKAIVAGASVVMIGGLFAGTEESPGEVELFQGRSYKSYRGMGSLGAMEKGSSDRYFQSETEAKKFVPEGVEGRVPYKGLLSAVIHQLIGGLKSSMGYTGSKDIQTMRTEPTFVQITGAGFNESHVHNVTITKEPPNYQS

`Cn1nc(CC(=O)Nc2ccc3oc4ccccc4c3c2)c2ccccc2c1=O` [Compound D73, N-(dibenzo[b,d]furan-2-yl)-2-(3-methyl-4-oxo-3,4-dihydrophthalazin-1-yl)acetamide]: the pIC50 in the series with Bu. mallei IMPDH was 7.00; against S. pyogenes IMPDH it was < 4.00; at B. anthracis IMPDH, 6.57; against F. tularensis IMPDH, 7.22; on CpIMPDH, 8.40.

On to `CC(=NOCCN)c1cccc(C(C)(C)NC(=O)Nc2ccc(Cl)c([N+](=O)[O-])c2)c1` [Compound P131], for which, in [1], the “intestine and feces concentration over IC50 for CpIMPDH inhibition” value is given as “more than 100 fold”. In [2] (250 mg/kg single oral dose, C57BL/6 mice), this molecule returned a plasma half-life of 4 h. In addition, in [2] (250 mg/kg single oral dose, C57BL/6 mice, read-out: maximal plasma concentration (Cmax)), the Cmax was found to be 9 µM. Moreover, the “plasma pharmacokinetic behavior / systemic distribution (in words)” value in series [2] (mouse, in vivo) was “poor systemic distribution”. In addition, in the series with Caco-2 cells [3], the “cytotoxicity to Caco-2 cells” value is given as “Some cytotoxicity”. Besides, the “impact on fecal microbiota” value in the series on gut microbiota is “no additional impact”. The pIC50 against B. anthracis IMPDH was 6.68; against A. baumannii IMPDH, 6.15. In addition, the “in vivo antiparasitic activity, fecal oocysts (in words)” value in the series on C. parvum is “anticryptosporidial activity”. Besides, the “uptake/accumulation in Caco-2 cells (in words)” value in the series on Caco-2 cells [4] is on record as “millimolar concentrations”.

As a reminder, the pIC50 is the negative decadic logarithm of the IC50, by convention in mol/L.
